Measured values from BindingDB's records for doi:10.1021/jm9806650 (Institute of Chemical Technology, 1999).

Assay: The compound was tested in vitro for inhibition of HIV-1 replication
Compound `COc1ccc(-c2c3n(c4c(=O)oc5cc(OS(=O)(=O)O)c(OC)cc5c24)CCc2cc(OC)c(OC)cc2-3)cc1O` has an IC50 of 12 µM. `COc1ccc(-c2c3c4cc(OC)c(O)cc4oc(=O)c3n3ccc4cc(O)c(OC)cc4c23)cc1O` [3,10-Dihydroxy-13-(3-hydroxy-4-methoxy-phenyl)-2,11-dimethoxy-5-oxa-6b-aza-dibenzo[a,i]fluoren-6-one] showed an IC50 of 1 µM. Compound `COc1ccc(-c2c3c4cc(OC)c(O)cc4oc(=O)c3n3ccc4c(OC)c(OC)c(OC)cc4c23)cc1O` [3-Hydroxy-13-(3-hydroxy-4-methoxy-phenyl)-2,9,10,11-tetramethoxy-5-oxa-6b-aza-dibenzo[a,i]fluoren-6-one] has an IC50 of 20 µM. Work on `COc1ccc(-c2c3n(c4c(=O)oc5cc(O)c(OC)cc5c24)CCc2c-3cc(OC)c(OC)c2OC)cc1O` [3-Hydroxy-13-(3-hydroxy-4-methoxy-phenyl)-2,9,10,11-tetramethoxy-7,8-dihydro-5-oxa-6b-aza-dibenzo[a,i]fluoren-6-one] yielded an IC50 of 18 µM. Work on `COc1ccc(-c2c3n(c4c(=O)oc5cc(OS(=O)(=O)O)c(OC)cc5c24)C(O)Cc2c-3cc(OC)c(OC)c2OC)cc1O` (stereo not given) [7-Hydroxy-13-(3-hydroxy-4-methoxy-phenyl)-2,9,10,11-tetramethoxy-7,8-dihydro-5-oxa-6b-aza-dibenzo[a,i]fluoren-6-one sodium sulfonate] yielded an IC50 of 20 µM.
